Measured values: patent publication US20100152244A1, “SELF-EMULSIFYING FORMULATION OF TIPRANAVIR FOR ORAL ADMINISTRATION” (BOEHRINGER INGELHEIM INTERNATIONAL GMBH, priority 2008, published 2010)

Test: lipophilicity (Log P)
Format: physicochemical
Excerpt: One possible reason for the self emulsifying behavior of the Capmul-free formulation is that tipranavir which is a highly lipophilic compound (Log P=6) once dissolved serves as a lipid core in this pre-concentrated microemulsion system. However, this rationale is only a theory and it was certainly not available to serve as guidance and motivation to us when we set about to solve the instability problem posed by the Capmul-containing formulation.

In the case of CCC[C@@]1(CCc2ccccc2)CC(O)=C([C@H](CC)c2cccc(NS(=O)(=O)c3ccc(C(F)(F)F)cn3)c2)C(=O)O1 [tipranavir, N-[3-[(1R)-1-[(6R)-5,6-dihydro-4-hydroxy-2-oxo-6-(2-phenylethyl)-6-propyl-2H-pyran-3-yl]propyl]phenyl]-5-(trifluoromethyl)-2-pyridinesulfonamide], the logP is reported as 6.
